In patent US20260250325A1, “Antiviral Polypeptide Membrane Fusion Inhibitor, and Preparation Method and Application Thereof” (priority 2025, published 2026) one finds EC50 and Kd data, which are given here for five compounds.

Where a SMILES comes first, the peptide text is derived from it. The star is where a group is joined. Succinyl(4-O-cholesteryl) = CC(C)CCC[C@@H](C)[C@H]1CC[C@H]2[C@@H]3CC=C4C[C@@H](OC(=O)CCC(=O)*)CC[C@]4(C)[C@H]3CC[C@]12C; X1 = CC(C)CCCC(C)C1CCC2C3CC=C4CC(OC(=O)CCC(=O)*)CCC4(C)C3CCC12C

The subject of one test is hMPV B1. Type of test: cell-based. The conditions noted are these: Vero cells, plaque reduction. As to the method:
(§1) African green monkey kidney cells (Vero) were sourced from the ATCC, with catalog number CCL-81. The cells were cultured in a DMEM culture solution in which 10% fetal bovine serum, 1% non-essential amino acids, 1% sodium pyruvate, 1% L-glutamine, 100 U/ml penicillin, and 100 μg/ml streptomycin were added.
(§2) A hMPV plaque experiment culture medium consisted of an Opti-MEM culture solution added with 1% non-essential amino acids, 100 U/mL penicillin, and 100 μg/mL streptomycin.
(§3) hMPV virus strains A2 and B1 were constructed by WuXi App Tec.
(§4) This study used a plaque reduction experiment to detect the in-vitro activity of a test sample against the hMPV virus strains A2 and B1.
(§5) The test sample and an experimental system were tested at 8 concentrations in duplicated wells. The Vero cells were digested with trypsin and then diluted to a concentration of 400,000 cells per milliliter by using a cell culture solution containing 2% serum. The diluted cells were added to a 96-well cell test board, with 100 μL per well, corresponding to 40000 cells per well. The cells were cultured overnight in a 37° C. incubator with 5% CO2.
(§6) On the second day, the test sample was diluted in an experimental culture medium at a fold ratio. The sample diluted at a fold ratio and an equal volume of virus (approximately 200 PFU per well) were well mixed and incubated at 33° C. in 5% CO2 for 1 h. Then, the culture solution in the 96-well cell test board was discarded, the sample virus mixed solution (100 μL) was added to the 96-well cell culture plate, and incubated at 37° C. in 5% CO2 for 2 hours. After 2 h, the sample virus mixed solution was discarded, 200 μL of an experiment culture medium containing the test sample with a corresponding concentration was added, and the culture solution contained 0.8% CMC and 5 μg/ml trypsin. A final concentration of DMSO in the culture solution was 0.5%. A system control antibody was directly added to the experiment culture solution containing 0.8% CMC and 5 μg/ml trypsin. A cell control (cells, without compound treatment or viral infection) and a viral control (cell infection virus, without compound treatment) were set. The cells were cultured for 1 day in the 33° C. incubator with 5% CO2.
(§7) The cells were fixed with 4% paraformaldehyde, and then permeabilization was performed with 0.5% Triton X-100. After the plate was washed with DPBS, a hMPV specific antibody (1:2000 dilution) was added and incubated at 37° C. for 1.5 h. Then, a secondary antibody (1:1000 dilution) was added and incubated at 37° C. for 1 hour. The secondary antibody was discarded, a TrueBlue solution was added, dyeing was performed for approximately 10 minutes; and the plate was washed with running water and then air-dried, and the number of spots in each well was counted by using a microplate imaging counter.
(§8) Raw data was used for analyzing the antiviral activity of the test samples. A calculation formula was shown as follows.
(§9) % inhibition rate=100−(sample value-cell control average value)/(virus control average value-cell control average value)×100
(§10) Non-linear fitting analysis was performed on the inhibition rate of the sample by using GraphPad Prism (version 10), so as to calculate an EC50 value for the sample. A fitting formula was log (inhibitor) vs. response-Variable slope (four parameters).

The next test relates to hMPV A2. Format: cell-based. Conditions: Vero cells, plaque reduction. As to the method:
as §1, §2, §3, §4, §5, §6, §7, §8, §9, §10

In a further test the target is T1, hPIV-N51 (139-189) (Human parainfluenza 3 virus, UniProt P06828).
T1 construct: hPIV-N51 (139-189)
The test can be described thus: SPR affinity to hPIV-N51 coupled on CM5 chip. Type of test: binding. As to the method: hMPV and hPIV were two viruses having a typical Class I fusion protein-F protein. An F protein precursor F0 was cracked into F1 and F2 subunits. […] When the compound flowed through a chip surface, changes in an SPR signal were monitored in real time, binding and dissociation processes were recorded, and a binding rate constant (ka) and a dissociation rate constant (kd) were further obtained through kinetic analysis, thereby calculating an equilibrium dissociation constant (KD=kd/ka).
A CM5 chip with a catalog number 29149603, an amino coupling reagent kit with a catalog number BR100050, HBS-EP+Buffer (10×), sodium acetate (pH 4.0), and a 10 mM glycine-HCl buffer (pH 2.0) were all purchased from GE Health.
CM5 chip coupling: Channels 2 and 4 of the CM5 chip were activated for 7 min by using a freshly-prepared mixture of 50 mM Hydroxy succinimide (NHS) and 200 mM 1-(3-Dimethylaminopropyl)-3-ethylcarbodiimide (EDC) according to 1:1; and then, hMPV-N46 or hPIV-N51 was diluted and dissolved with sodium acetate with 4.0 pH to a concentration of 30 μM, with a flow rate of 10 μl/min and time of 600 s. An experimental buffer was HBS-EP+buffer (1×). Finally, the chip was blocked with 1 M ethanolamine. The instrument was set to a temperature of 25° C.
Affinity detection: the buffer used in the experiment was HBS-EP+buffer (1×), and a multi-cycle dynamic mode was used. Channels 1 and 3 of the chip served as blank reference channels; polypeptides to be detected sequentially flowed through Channels 2 and 4 at concentrations of 0 μM, 0.04 µM, 0.12 µM, 0.37 μM, 1.11 µM, 3.33 µM, 10 µM, and 30 μM; the flow rate was 30 μl/min, binding was performed for 180 s, and dissociation was performed for 120 s. Finally, the chip was regenerated by injecting 10 mM glycine (pH 2.0). The instrument was set to a temperature of 25° C.

T1 sequence (P06828 139-189): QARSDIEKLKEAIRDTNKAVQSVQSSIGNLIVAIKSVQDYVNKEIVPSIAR

Usually EC50 stands for the concentration at which the effect is half-maximal. Usually Kd stands for the concentration at which binding is half-saturated. A low value points to higher affinity. Regarding `CC[C@H](C)[C@H](NC(=O)[C@H](CO)NC(=O)[C@H](C)NC(=O)[C@H](CC(=O)O)NC(=O)[C@H](Cc1ccccc1)NC(C)=O)C(=O)N[C@@H](CCC(=O)O)C(=O)N[C@@H](CCC(=O)O)C(=O)N[C@H](C(=O)N[C@@H](CC(N)=O)C(=O)N[C@@H](CCCNC(=N)N)C(=O)N[C@@H](CCCNC(=N)N)C(=O)N[C@H](C(=O)N[C@@H](CCC(=O)O)C(=O)N[C@@H](CCC(=O)O)C(=O)N[C@@H](CO)C(=O)N[C@@H](CC(C)C)C(=O)N[C@@H](CCCNC(=N)N)C(=O)N[C@@H](CCCNC(=N)N)C(=O)N[C@H](C(=O)N[C@@H](CCC(=O)O)C(=O)N[C@@H](CCC(=O)O)C(=O)N[C@@H](CO)C(=O)N[C@@H](CC(=O)O)C(=O)N[C@@H](CCCNC(=N)N)C(=O)N[C@@H](CCCNC(=N)N)C(=O)N[C@@H](CC(C)C)C(=O)N[C@@H](CCC(=O)O)C(=O)N[C@@H](CCC(=O)O)C(=O)N[C@H](C(=O)N[C@@H](CC(N)=O)C(=O)N[C@@H](C)C(=O)N[C@@H](CCC(=O)O)C(=O)N[C@@H](C)C(=O)N[C@@H](C)C(=O)N[C@@H](C)C(=O)N[C@@H](CCCCN)C(=O)N[C@@H](CCCCNC(=O)CCC(=O)O[C@H]1CC[C@@]2(C)C(=CC[C@H]3[C@@H]4CC[C@H]([C@H](C)CCCC(C)C)[C@@]4(C)CC[C@@H]32)C1)C(N)=O)C(C)C)[C@@H](C)CC)[C@@H](C)CC)C(C)C` [Compound 42] (Ac-FDASIEEVNRRIEESLRRIEESDRRLEEVNAEAAAKK(Succinyl(4-O-cholesteryl))-NH2), the values for the EC50 in the test with hMPV B1 and in the test with hMPV A2 were 10.1 nM and 26.1 nM, respectively. Further, at hPIV-N51 (139-189), the Kd is 485 nM.
The corresponding values for `CC[C@H](C)[C@H](NC(=O)[C@H](CCCCN)NC(=O)[C@H](CCCCN)NC(=O)[C@H](CC(C)C)NC(=O)[C@H](CO)NC(=O)[C@H](CCC(=O)O)NC(=O)[C@H](CCC(=O)O)NC(=O)[C@@H](NC(=O)[C@H](CCCCN)NC(=O)[C@H](CCCCN)NC(=O)[C@H](CC(N)=O)NC(=O)[C@@H](NC(=O)[C@H](CCC(=O)O)NC(=O)[C@H](CCC(=O)O)NC(=O)[C@@H](NC(=O)[C@H](CCCCN)NC(=O)[C@H](CCCCN)NC(=O)[C@H](CC(=O)O)NC(=O)[C@H](Cc1ccccc1)NC(=O)[C@H](CCC(=O)O)NC(=O)[C@H](CC(=O)O)NC(=O)[C@H](Cc1c[nH]c2ccccc12)NC(C)=O)[C@@H](C)CC)C(C)C)[C@@H](C)CC)C(=O)N[C@@H](CCC(=O)O)C(=O)N[C@@H](CCC(=O)O)C(=O)N[C@@H](CO)C(=O)N[C@@H](CC(=O)O)C(=O)N[C@@H](CCCCN)C(=O)N[C@@H](CCCCN)C(=O)N[C@@H](CC(C)C)C(=O)N[C@@H](Cc1c[nH]cn1)C(=O)N[C@@H](CC(N)=O)C(=O)N[C@H](C(=O)N[C@@H](CCC(=O)O)C(=O)N[C@@H](C)C(=O)N[C@@H](C)C(=O)N[C@@H](C)C(=O)N[C@@H](CCCCN)C(=O)N[C@@H](CCCCNC(=O)CCC(=O)O[C@H]1CC[C@@]2(C)C(=CC[C@H]3[C@@H]4CC[C@H]([C@H](C)CCCC(C)C)[C@@]4(C)CC[C@@H]32)C1)C(N)=O)C(C)C` [Compound 44] (Ac-WDEFDKKIEEVNKKIEESLKKIEESDKKLHNVEAAAKK(Succinyl(4-O-cholesteryl))-NH2) are 6.6 nM, 14.6 nM and 6860 nM.
For “Ac-SLEQVNEKINQSLAFIRKSDEINQSDEEVNKSDELLEAAAKK-NH2 [Compound 50]”, the EC50 in the test on hMPV B1 is 5.95 nM; in the test on hMPV A2, 13.3 nM.
For `CC[C@H](C)[C@H](NC(=O)[C@H](CCCCN)NC(=O)[C@H](CCCCN)NC(=O)[C@H](CC(C)C)NC(=O)[C@H](CO)NC(=O)[C@H](CCC(=O)O)NC(=O)[C@H](CCC(=O)O)NC(=O)[C@@H](NC(=O)[C@H](CCCCN)NC(=O)[C@H](CCCCN)NC(=O)[C@H](CC(N)=O)NC(=O)[C@@H](NC(=O)[C@H](CCC(=O)O)NC(=O)[C@H](CCC(=O)O)NC(=O)[C@@H](NC(=O)[C@H](CCCCN)NC(=O)[C@H](CCCCN)NC(=O)[C@H](CC(=O)O)NC(=O)[C@H](Cc1ccccc1)NC(=O)[C@H](CCC(=O)O)NC(=O)[C@H](CC(=O)O)NC(=O)[C@H](Cc1c[nH]c2ccccc12)NC(C)=O)[C@@H](C)CC)C(C)C)[C@@H](C)CC)C(=O)N[C@@H](CCC(=O)O)C(=O)N[C@@H](CCC(=O)O)C(=O)N[C@@H](CO)C(=O)N[C@@H](CC(=O)O)C(=O)N[C@@H](CCCCN)C(=O)N[C@@H](CCCCN)C(=O)N[C@@H](CC(C)C)C(=O)N[C@@H](CCC(=O)O)C(=O)N[C@@H](CCC(=O)O)C(=O)N[C@H](C(=O)N[C@@H](CC(N)=O)C(=O)N[C@@H](CCC(=O)O)C(=O)N[C@@H](C)C(=O)N[C@@H](C)C(=O)N[C@@H](C)C(=O)N[C@@H](CCCCN)C(=O)N[C@@H](CCCCNC(=O)CCC(=O)O[C@H]1CC[C@@]2(C)C(=CC[C@H]3[C@@H]4CC[C@H]([C@H](C)CCCC(C)C)[C@@]4(C)CC[C@@H]32)C1)C(N)=O)C(C)C` [Compound 41] (Ac-WDEFDKKIEEVNKKIEESLKKIEESDKKLEEVNEAAAKK(Succinyl(4-O-cholesteryl))-NH2), the EC50 turned out to be 9.46 nM in the test with hMPV B1 and 11.7 nM in the test on hMPV A2. Also, at hPIV-N51 (139-189), the Kd is 492 nM.
For `CC[C@H](C)[C@H](NC(=O)[C@H](CCCCN)NC(=O)[C@H](CCCCN)NC(=O)[C@H](CC(C)C)NC(=O)[C@H](CO)NC(=O)[C@H](CCC(=O)O)NC(=O)[C@H](CCC(=O)O)NC(=O)[C@@H](NC(=O)[C@H](CCCCN)NC(=O)[C@H](CCCCN)NC(=O)[C@H](CC(N)=O)NC(=O)[C@@H](NC(=O)[C@H](CCC(=O)O)NC(=O)[C@H](CCC(=O)O)NC(=O)[C@@H](NC(=O)[C@H](CCCCN)NC(=O)[C@H](CCCCN)NC(=O)[C@H](CC(=O)O)NC(=O)[C@H](Cc1ccccc1)NC(=O)[C@H](CCC(=O)O)NC(=O)[C@H](CC(=O)O)NC(C)=O)[C@@H](C)CC)C(C)C)[C@@H](C)CC)C(=O)N[C@@H](CCC(=O)O)C(=O)N[C@@H](CCC(=O)O)C(=O)N[C@@H](CO)C(=O)N[C@@H](CC(=O)O)C(=O)N[C@@H](CCCCN)C(=O)N[C@@H](CCCCN)C(=O)N[C@@H](CC(C)C)C(=O)N[C@@H](CCC(=O)O)C(=O)N[C@@H](CCC(=O)O)C(=O)N[C@H](C(=O)N[C@@H](CCC(=O)O)C(=O)N[C@@H](C)C(=O)N[C@@H](C)C(=O)N[C@@H](C)C(=O)N[C@@H](CCCCN)C(=O)N[C@@H](CCCCNC(=O)CCC(=O)OC1CCC2(C)C(=CCC3C2CCC2(C)C(C(C)CCCC(C)C)CCC32)C1)C(N)=O)C(C)C` (stereo partly shown) [Compound 21] (Ac-DEFDKKIEEVNKKIEESLKKIEESDKKLEEVEAAAKK(X1)-NH2), the EC50 in the test with hMPV B1 was 4.92 nM; with hMPV A2, 11.2 nM.
